ChEMBL document CHEMBL3045388, “Sensitivity of Podosphaera aphanis isolates to DMI fungicides: distribution and reduced cross-sensitivity” (Pest Manag Sci, 2010)
In brackets after ≈: the same amount, converted by molar mass.

Legend:
Type in all cases: functional, organism-based
[1] = test system: Podosphaera aphanis; test: Antifungal activity against Podosphaera aphanis isolate DAR1 in Darselect leaf disks after 8 days; conditions: isolate DAR1, 192 h
[2] = test system: Podosphaera aphanis; test: Antifungal activity against Podosphaera aphanis isolate LBP in Darselect leaf disks after 8 days; conditions: 192 h
[3] = test system: Podosphaera aphanis; test: Antifungal activity against Podosphaera aphanis isolate SIL in Darselect leaf disks after 8 days; conditions: 192 h
[4] = test system: Podosphaera aphanis; test: Antifungal activity against Podosphaera aphanis isolate AVI in Darselect leaf disks after 8 days; conditions: 192 h
[5] = test system: Podosphaera aphanis; test: Antifungal activity against Podosphaera aphanis isolate BRE in Darselect leaf disks after 8 days; conditions: 192 h
[6] = test system: Podosphaera aphanis; test: Antifungal activity against Podosphaera aphanis isolate MEP in Darselect leaf disks after 8 days; conditions: 192 h
[7] = test system: Podosphaera aphanis; test: Antifungal activity against Podosphaera aphanis isolate ART in Darselect leaf disks after 8 days; conditions: 192 h
[8] = test system: Podosphaera aphanis; test: Antifungal activity against Podosphaera aphanis isolate ABA in Darselect leaf disks after 8 days; conditions: 192 h
[9] = test system: Podosphaera aphanis; test: Antifungal activity against Podosphaera aphanis isolate SAG in Darselect leaf disks after 8 days; conditions: 192 h
[10] = test system: Podosphaera aphanis; test: Antifungal activity against Podosphaera aphanis isolate SOC in Darselect leaf disks after 8 days; conditions: 192 h
[11] = test system: Podosphaera aphanis; test: Antifungal activity against Podosphaera aphanis isolate BRA in Darselect leaf disks after 8 days; conditions: 192 h
[12] = test system: Podosphaera aphanis; test: Antifungal activity against Podosphaera aphanis isolate LI1 in Darselect leaf disks after 8 days; conditions: isolate LI1, 192 h
[13] = test system: Podosphaera aphanis; test: Antifungal activity against Podosphaera aphanis isolate HOR in Darselect leaf disks after 8 days; conditions: 192 h
[14] = test system: Podosphaera aphanis; test: Antifungal activity against Podosphaera aphanis isolate CAM in Darselect leaf disks after 8 days; conditions: 192 h
[15] = test system: Podosphaera aphanis; test: Antifungal activity against Podosphaera aphanis isolate SOU in Darselect leaf disks after 8 days; conditions: 192 h
[16] = test system: Podosphaera aphanis; test: Antifungal activity against Podosphaera aphanis isolate DAR18 in Darselect leaf disks after 8 days; conditions: isolate DAR18, 192 h
[17] = test system: Podosphaera aphanis; test: Antifungal activity against Podosphaera aphanis isolate GUI in Darselect leaf disks after 8 days; conditions: 192 h
[18] = test system: Podosphaera aphanis; test: Antifungal activity against Podosphaera aphanis isolate PES in Darselect leaf disks after 8 days; conditions: 192 h
[19] = test system: Podosphaera aphanis; test: Antifungal activity against Podosphaera aphanis isolate VIR in Darselect leaf disks after 8 days; conditions: 192 h
[20] = test system: Podosphaera aphanis; test: Antifungal activity against Podosphaera aphanis isolate MEG in Darselect leaf disks after 8 days; conditions: 192 h
[21] = test system: Podosphaera aphanis; test: Antifungal activity against Podosphaera aphanis isolate SOD in Darselect leaf disks after 8 days; conditions: 192 h
[22] = test system: Podosphaera aphanis; test: Antifungal activity against Podosphaera aphanis isolate MAR in Darselect leaf disks after 8 days; conditions: 192 h
[23] = test system: Podosphaera aphanis; test: Antifungal activity against Podosphaera aphanis isolate PAJ in Darselect leaf disks after 8 days; conditions: 192 h
[24] = test system: Podosphaera aphanis; test: Antifungal activity against Podosphaera aphanis isolate DOU in Darselect leaf disks after 8 days; conditions: 192 h

SMILES: CCCCC(C#N)(Cn1cncn1)c1ccc(Cl)cc1 (centres undefined) [MYCLOBUTANIL]
- EC50 [1]: 4.75 µg/mL (≈ 16.4 µM)
- MIC [1]: 15 µg/mL (≈ 51.9 µM)
- EC50 [2]: 4.8 µg/mL (≈ 16.6 µM)
- MIC [2]: 12.5 µg/mL (≈ 43.3 µM)
- EC50 [3]: 2 µg/mL (≈ 6.93 µM)
- MIC [3]: 6.5 µg/mL (≈ 22.5 µM)
- EC50 [4]: 0.5 µg/mL (≈ 1.73 µM)
- MIC [4]: 2 µg/mL (≈ 6.93 µM)
- EC50 [5]: 5.3 µg/mL (≈ 18.4 µM)
- MIC [5]: 13.7 µg/mL (≈ 47.4 µM)
- EC50 [6]: 0.8 µg/mL (≈ 2.77 µM)
- MIC [6]: 3 µg/mL (≈ 10.4 µM)
- EC50 [7]: 3.9 µg/mL (≈ 13.5 µM)
- MIC [7]: 10.7 µg/mL (≈ 37.1 µM)
- EC50 [8]: 3.75 µg/mL (≈ 13 µM)
- MIC [8]: 9 µg/mL (≈ 31.2 µM)
- EC50 [9]: 1.7 µg/mL (≈ 5.89 µM)
- MIC [9]: 5.33 µg/mL (≈ 18.5 µM)
- EC50 [10]: 6.45 µg/mL (≈ 22.3 µM)
- MIC [10]: 26 µg/mL (≈ 90 µM)
- EC50 [11]: 1.3 µg/mL (≈ 4.5 µM)
- MIC [11]: 3 µg/mL (≈ 10.4 µM)
- EC50 [12]: 3.6 µg/mL (≈ 12.5 µM)
- MIC [12]: 8.5 µg/mL (≈ 29.4 µM)
- EC50 [13]: 4.25 µg/mL (≈ 14.7 µM)
- MIC [13]: 10.8 µg/mL (≈ 37.2 µM)
- EC50 [14]: 2.6 µg/mL (≈ 9 µM)
- MIC [14]: 5.5 µg/mL (≈ 19 µM)
- EC50 [15]: 10 µg/mL (≈ 34.6 µM)
- MIC [15]: 23 µg/mL (≈ 79.6 µM)
- EC50 [16]: 14.7 µg/mL (≈ 50.8 µM)
- MIC [16]: 31 µg/mL (≈ 107 µM)
- EC50 [17]: 1.15 µg/mL (≈ 3.98 µM)
- MIC [17]: 2.35 µg/mL (≈ 8.14 µM)
- EC50 [18]: < 0.1 µg/mL
- MIC [18]: < 0.1 µg/mL
- EC50 [19]: 1.8 µg/mL (≈ 6.23 µM)
- MIC [19]: 5 µg/mL (≈ 17.3 µM)
- EC50 [20]: 1 µg/mL (≈ 3.46 µM)
- MIC [20]: 2.35 µg/mL (≈ 8.14 µM)
- EC50 [21]: 13.1 µg/mL (≈ 45.4 µM)
- MIC [21]: 21.5 µg/mL (≈ 74.5 µM)
- EC50 [22]: 5.5 µg/mL (≈ 19 µM)
- MIC [22]: 16 µg/mL (≈ 55.4 µM)
- EC50 [23]: 3 µg/mL (≈ 10.4 µM)
- MIC [23]: 6.9 µg/mL (≈ 23.9 µM)
- EC50 [24]: 8.9 µg/mL (≈ 30.8 µM)
- MIC [24]: 15.5 µg/mL (≈ 53.7 µM)

SMILES: CCCC(Cn1cncn1)c1ccc(Cl)cc1Cl (centres undefined) [PENCONAZOLE]
- EC50 [1]: 2 µg/mL (≈ 7.04 µM)
- MIC [1]: 3 µg/mL (≈ 10.6 µM)
- EC50 [2]: 4.2 µg/mL (≈ 14.8 µM)
- MIC [2]: 9.5 µg/mL (≈ 33.4 µM)
- EC50 [3]: 0.4 µg/mL (≈ 1.41 µM)
- MIC [3]: 1 µg/mL (≈ 3.52 µM)
- EC50 [4]: 0.58 µg/mL (≈ 2.04 µM)
- MIC [4]: 1.8 µg/mL (≈ 6.33 µM)
- EC50 [5]: 1.9 µg/mL (≈ 6.69 µM)
- MIC [5]: 6 µg/mL (≈ 21.1 µM)
- EC50 [6]: 0.3 µg/mL (≈ 1.06 µM)
- MIC [6]: 0.8 µg/mL (≈ 2.82 µM)
- EC50 [7]: 2.2 µg/mL (≈ 7.74 µM)
- MIC [7]: 6.6 µg/mL (≈ 23.2 µM)
- EC50 [8]: 1.25 µg/mL (≈ 4.4 µM)
- MIC [8]: 2.85 µg/mL (≈ 10 µM)
- EC50 [9]: 0.28 µg/mL (≈ 0.985 µM)
- MIC [9]: 0.5 µg/mL (≈ 1.76 µM)
- EC50 [10]: 3.2 µg/mL (≈ 11.3 µM)
- MIC [10]: 7.9 µg/mL (≈ 27.8 µM)
- EC50 [11]: 1.48 µg/mL (≈ 5.21 µM)
- MIC [11]: 2.6 µg/mL (≈ 9.15 µM)
- EC50 [12]: 2.45 µg/mL (≈ 8.62 µM)
- MIC [12]: 5.15 µg/mL (≈ 18.1 µM)
- EC50 [13]: 0.8 µg/mL (≈ 2.82 µM)
- MIC [13]: 2 µg/mL (≈ 7.04 µM)
- EC50 [14]: 0.9 µg/mL (≈ 3.17 µM)
- MIC [14]: 2.5 µg/mL (≈ 8.8 µM)
- EC50 [15]: 2.1 µg/mL (≈ 7.39 µM)
- MIC [15]: 9.8 µg/mL (≈ 34.5 µM)
- EC50 [16]: 3.5 µg/mL (≈ 12.3 µM)
- MIC [16]: 9 µg/mL (≈ 31.7 µM)
- EC50 [17]: 0.9 µg/mL (≈ 3.17 µM)
- MIC [17]: 2.1 µg/mL (≈ 7.39 µM)
- EC50 [18]: 0.04 µg/mL (≈ 0.141 µM)
- MIC [18]: 0.15 µg/mL (≈ 0.528 µM)
- EC50 [19]: 2 µg/mL (≈ 7.04 µM)
- MIC [19]: 5 µg/mL (≈ 17.6 µM)
- EC50 [20]: 0.43 µg/mL (≈ 1.51 µM)
- MIC [20]: 1 µg/mL (≈ 3.52 µM)
- EC50 [22]: 2.55 µg/mL (≈ 8.97 µM)
- MIC [22]: 10 µg/mL (≈ 35.2 µM)
- EC50 [23]: 2.9 µg/mL (≈ 10.2 µM)
- MIC [23]: 3.9 µg/mL (≈ 13.7 µM)
- EC50 [24]: 1.3 µg/mL (≈ 4.57 µM)
- MIC [24]: 2 µg/mL (≈ 7.04 µM)
